Measured values from paper PMC9841524, “Structure-Based Rational Design of Small α-Helical Peptides with Broad-Spectrum Activity against Multidrug-Resistant Pathogens” (Journal of Medicinal Chemistry, 2022).
Where no end group is shown, it is not given here.

System: S. aureus (ATCC 29213)
Assay: MIC, standard microtiter dilution (CLSI)
Assay type: cell-based
Conditions: broth microdilution (CLSI), CAMHB, 10^6 CFU/mL, 37 °C, 24 h; highest MIC of three independent experiments in triplicate
Experimental: (§1) Description of the characteristics and growth conditions of various bacterial strains used in the study are provided in the Supporting Information (Table S3). Antibacterial susceptibility testing was carried out using a standard microtiter dilution method recommended by the clinical and laboratory standard institute (CLSI) and measured as a minimum inhibitory concentration (MIC), the lowest peptide concentration that inhibited bacterial growth. Briefly, the overnight grown cultures in the recommended broth for each bacterial strain were diluted in cation-adjusted Mueller Hinton Broth (CAMHB) to give an inoculum of 10^6 colony-forming units (CFU)/mL. A 2-fold serially diluted test peptide solution (100 μL) was added to the microtiter plates. After adding bacterial suspension (100 μL), the plates were incubated at 37 °C for 24 h, and the MICs were determined. The same protocol was used to determine the MICs in the presence of salts and serum except using the media supplemented with various cationic salts (150 mM NaCl, 4.5 mM KCl, 6 mM NH4Cl, 1 mM MgCl2, and 2 mM CaCl2) or 25% FBS. The data was acquired from three independent assays performed in triplicate.
(§2) The bacterial strains employed in this study were obtained from the American Type Culture Collection (ATCC). Each strain was propagated as recommended by the ATCC, and each strain was stored as a frozen glycerol stock at -80°C. A bacterial colony was grown on the appropriate agar as indicated in Table S1 and was used to inoculate the appropriate broth. The culture was incubated at the appropriate conditions, as mentioned in Table S1. Following the incubation, the culture was diluted to an optical density 625 nm (OD625) of 0.1 in cation adjusted Mueller Hinton Broth (CAMHB), which is equivalent to 1 × 10^8 CFU/mL. The culture was further diluted to 1 × 10^6 CFU/mL, which was used to conduct the MIC determination assay. For the S. pneumoniae strains, CAMHB + 2.5% lysed horse blood was required for the assay. The strains with their […]
(§3) Table S3. Description of the characteristics and growth conditions of various bacterial strains

| Substance | MIC, S. aureus (ATCC 29213) [µg/mL] |
| --- | --- |
| ARRWWRRW-NH2 [2e] | 100 |
| AWWRRAWRR-NH2 [3f] | > 100 |
| Ac-RWIRRWIRWWR-NH2 [5e] | 50 |
| Ac-RWLRRWLRWWR-NH2 [5f] | 12.5 |
| H-AAWRRWWRRA-NH2 [4h] | > 100 |
| H-RAWRRAWRAW-NH2 [4a] | > 100 |

Same assay, conditions: value in parentheses (μM); broth microdilution (CLSI), CAMHB, 37 °C, 24 h

| Substance | MIC, S. aureus (ATCC 29213) [µM] |
| --- | --- |
| ARRWWRRW-NH2 [2e] | 78.65 |
| AWWRRAWRR-NH2 [3f] | > 74.48 |
| Ac-RWIRRWIRWWR-NH2 [5e] | 27.61 |
| Ac-RWLRRWLRWWR-NH2 [5f] | 6.90 |
| H-AAWRRWWRRA-NH2 [4h] | > 70.74 |
| H-RAWRRAWRAW-NH2 [4a] | > 70.74 |

System: E. coli (ATCC 25922)
Assay: not given
Conditions: broth microdilution (CLSI), CAMHB, 10^6 CFU/mL, 37 °C, 24 h; highest MIC of three independent experiments in triplicate
Experimental: as §1, §2, §3

| Substance | MIC, E. coli (ATCC 25922) [µg/mL] |
| --- | --- |
| ARRWWRRW-NH2 [2e] | > 100 |
| AWWRRAWRR-NH2 [3f] | > 100 |
| Ac-RWIRRWIRWWR-NH2 [5e] | 100 |
| Ac-RWLRRWLRWWR-NH2 [5f] | 50 |
| H-AAWRRWWRRA-NH2 [4h] | > 100 |
| H-RAWRRAWRAW-NH2 [4a] | > 100 |

Same assay, conditions: value in parentheses (μM); broth microdilution (CLSI), CAMHB, 37 °C, 24 h

| Substance | MIC, E. coli (ATCC 25922) [µM] |
| --- | --- |
| ARRWWRRW-NH2 [2e] | > 78.65 |
| AWWRRAWRR-NH2 [3f] | > 74.48 |
| Ac-RWIRRWIRWWR-NH2 [5e] | 55.21 |
| Ac-RWLRRWLRWWR-NH2 [5f] | 27.61 |
| H-AAWRRWWRRA-NH2 [4h] | > 70.74 |
| H-RAWRRAWRAW-NH2 [4a] | > 70.74 |

System: MRSA (ATCC BAA-1556)
Assay: not given
Conditions: broth microdilution (CLSI), CAMHB, 10^6 CFU/mL, 37 °C, 24 h; highest MIC of three independent experiments in triplicate
Experimental: as §1, §2, §3

| Substance | MIC, MRSA (ATCC BAA-1556) [µg/mL] |
| --- | --- |
| ARRWWRRW-NH2 [2e] | 100 |
| AWWRRAWRR-NH2 [3f] | > 100 |
| Ac-RWIRRWIRWWR-NH2 [5e] | 50 |
| Ac-RWLRRWLRWWR-NH2 [5f] | 12.5 |
| H-AAWRRWWRRA-NH2 [4h] | > 100 |
| H-RAWRRAWRAW-NH2 [4a] | > 100 |

Same assay, conditions: value in parentheses (μM); broth microdilution (CLSI), CAMHB, 37 °C, 24 h

| Substance | MIC, MRSA (ATCC BAA-1556) [µM] |
| --- | --- |
| ARRWWRRW-NH2 [2e] | > 78.65 |
| AWWRRAWRR-NH2 [3f] | > 74.48 |
| Ac-RWIRRWIRWWR-NH2 [5e] | 27.61 |
| Ac-RWLRRWLRWWR-NH2 [5f] | 6.90 |
| H-AAWRRWWRRA-NH2 [4h] | > 70.74 |
| H-RAWRRAWRAW-NH2 [4a] | > 70.74 |

System: P. aeruginosa (ATCC 27883)
Assay: MIC, standard microtiter dilution (CLSI)
Assay type: cell-based, Pseudomonas aeruginosa
Conditions: broth microdilution (CLSI), CAMHB, 10^6 CFU/mL, 37 °C, 24 h; highest MIC of three independent experiments in triplicate
Experimental: as §1, §2, §3

| Substance | MIC, P. aeruginosa (ATCC 27883) [µg/mL] |
| --- | --- |
| ARRWWRRW-NH2 [2e] | > 100 |
| AWWRRAWRR-NH2 [3f] | > 100 |
| Ac-RWIRRWIRWWR-NH2 [5e] | 50 |
| Ac-RWLRRWLRWWR-NH2 [5f] | 25 |
| H-AAWRRWWRRA-NH2 [4h] | > 100 |
| H-RAWRRAWRAW-NH2 [4a] | > 100 |

Same assay, conditions: value in parentheses (μM); broth microdilution (CLSI), CAMHB, 37 °C, 24 h

| Substance | MIC, P. aeruginosa (ATCC 27883) [µM] |
| --- | --- |
| ARRWWRRW-NH2 [2e] | > 78.65 |
| AWWRRAWRR-NH2 [3f] | > 74.48 |
| Ac-RWIRRWIRWWR-NH2 [5e] | 27.61 |
| Ac-RWLRRWLRWWR-NH2 [5f] | 13.80 |
| H-AAWRRWWRRA-NH2 [4h] | > 70.74 |
| H-RAWRRAWRAW-NH2 [4a] | > 70.74 |

System: K. pneumoniae (ATCCBAA-1705)
Assay: MIC, standard microtiter dilution (CLSI)
Assay type: cell-based, Klebsiella pneumoniae
Conditions: broth microdilution (CLSI), CAMHB, 10^6 CFU/mL, 37 °C, 24 h; highest MIC of three independent experiments in triplicate
Experimental: as §1, §2, §3

| Substance | MIC, K. pneumoniae (ATCCBAA-1705) [µg/mL] |
| --- | --- |
| ARRWWRRW-NH2 [2e] | > 100 |
| AWWRRAWRR-NH2 [3f] | > 100 |
| Ac-RWIRRWIRWWR-NH2 [5e] | 100 |
| Ac-RWLRRWLRWWR-NH2 [5f] | 50 |
| H-AAWRRWWRRA-NH2 [4h] | > 100 |
| H-RAWRRAWRAW-NH2 [4a] | > 100 |

Same assay, conditions: value in parentheses (μM); broth microdilution (CLSI), CAMHB, 37 °C, 24 h

| Substance | MIC, K. pneumoniae (ATCCBAA-1705) [µM] |
| --- | --- |
| ARRWWRRW-NH2 [2e] | > 78.65 |
| AWWRRAWRR-NH2 [3f] | > 74.48 |
| Ac-RWIRRWIRWWR-NH2 [5e] | 55.21 |
| Ac-RWLRRWLRWWR-NH2 [5f] | 27.61 |
| H-AAWRRWWRRA-NH2 [4h] | > 70.74 |
| H-RAWRRAWRAW-NH2 [4a] | > 70.74 |

System: human red blood cells (hRBCs)
Assay: Hemolytic assay
Assay type: cell-based
Conditions: hRBC suspension 4% in PBS, 2 h, 37 °C, hemoglobin release at 567 nm; 1% Triton X-100 = 100%
Experimental: The hemolytic activity of all peptides (1a–8d) was determined using hRBC. The assay was conducted by adding 75 μL of 2-fold serially diluted peptides to 75 μL of hRBC suspension (4% in PBS). The plates were incubated for 2 h at 37 °C without agitation. In order to determine the hemolysis at each tested concentration of peptides, the plate was centrifuged, and 100 μL of the supernatant was transferred to another 96-well plate to determine hemoglobin release spectrophotometrically at 567 nm. Percent hemolysis was calculated by the following formula [drawing 1] where A represents the absorbance of the peptide sample at 567 nm and A0 and At represent zero percent and 100% hemolysis determined in phosphate buffer saline and 1% Triton X-100, respectively.

| Substance | HC50 (concentration at which 50% hemolysis was observed) [µg/mL] |
| --- | --- |
| ARRWWRRW-NH2 [2e] | > 500 |
| AWWRRAWRR-NH2 [3f] | > 500 |
| Ac-RWIRRWIRWWR-NH2 [5e] | 60 |
| Ac-RWLRRWLRWWR-NH2 [5f] | 65 |
| H-AAWRRWWRRA-NH2 [4h] | > 500 |
| H-RAWRRAWRAW-NH2 [4a] | > 500 |

Same assay, conditions: value in parentheses (μM); hRBC 4% in PBS, 2 h, 37 °C, 567 nm

| Substance | HC50 (concentration at which 50% hemolysis was observed) [µM] |
| --- | --- |
| ARRWWRRW-NH2 [2e] | > 393.23 |
| AWWRRAWRR-NH2 [3f] | > 372.42 |
| Ac-RWIRRWIRWWR-NH2 [5e] | 33.13 |
| Ac-RWLRRWLRWWR-NH2 [5f] | 35.89 |
| H-AAWRRWWRRA-NH2 [4h] | > 353.69 |
| H-RAWRRAWRAW-NH2 [4a] | > 353.69 |
